{"source": "patent US6534523B1", "about": "“Hepatitis C inhibitor tri-peptides” (Boehringer Ingelheim (Canada) Ltd., priority 1998, dated 2003)", "key": {"[1]": {"molecular_target": "T1, HCV NS3 protease type 1b / NS4A cofactor peptide (Hepatitis C virus genotype 1b, UniProt P26663)", "T1 construct": "recombinant HCV NS3 protease (amino acid 1027 to 1206) was cloned in the pET11d bacterial expression vector; made in house; host or cells: E. coli BL21(DE3)pLysS", "T1 sequence (P26663 1027-1206, other chains not shown)": "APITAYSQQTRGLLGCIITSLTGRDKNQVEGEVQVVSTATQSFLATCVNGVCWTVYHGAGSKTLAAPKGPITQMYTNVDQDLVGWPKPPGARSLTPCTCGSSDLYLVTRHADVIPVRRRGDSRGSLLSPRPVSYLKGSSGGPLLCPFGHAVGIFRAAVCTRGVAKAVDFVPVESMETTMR", "assay": "Recombinant HCV NS3 protease/NS4A cofactor peptide radiometric assay (Example 37)", "format": "biochemical, HCV genotype 1b", "experimental": "Recombinant HCV NS3 Protease/NS4A Cofactor Peptide Radiometric Assay\nThe enzyme was cloned, expressed and prepared according to the protocol described in Example 36. The enzyme was stored at −80° C., thawed on ice and diluted just prior to use in the assay buffer containing the NS4A cofactor peptide.\nThe substrate used for the NS3 protease/NS4A cofactor peptide radiometric assay, DDIVPC-SMSYTW, is cleaved between the cysteine and the serine residues by the enzyme. The sequence DDIVPC-SMSYTW corresponds to the NS5A/NS5B natural cleavage site in which the cysteine residue in P2 has been substituted for a proline. The peptide substrate DDIVPC-SMSYTW and the tracer biotin-DDIVPC-SMS[^125I-Y]TW are incubated with the recombinant NS3 protease and the NS4A peptide cofactor […] (molar ratio enzyme:cofactor 1:100) in the absence or presence of inhibitors. The separation of substrate from products is performed by adding avidin-coated agarose beads to the assay mixture followed by filtration. The amount of SMS[^125I-Y]TW product found in the filtrate allows for the calculation of the percentage of substrate conversion and of the percentage of inhibition.\nTris and Tris-HCl (UltraPure) were obtained from Gibco-BRL. […]\nThe filtrates were counted on a Packard TopCount instrument using a ^125I-liquid protocol for 1 minute.\n(§1) The % inhibition was calculated with the following equation: […]"}, "[2]": {"molecular_target": "T2, full length NS3-NS4A heterodimer protein (His-NS3-NS4AFL) (Hepatitis C virus genotype 1b, UniProt P26663)", "T2 construct": "The full length mature NS3 and NS4A heterodimer protein (His-NS3-NS4AFL) was expressed; made in house; host or cells: Sf21 insect cells, recombinant baculovirus", "T2 sequence (P26663 1027-1657)": "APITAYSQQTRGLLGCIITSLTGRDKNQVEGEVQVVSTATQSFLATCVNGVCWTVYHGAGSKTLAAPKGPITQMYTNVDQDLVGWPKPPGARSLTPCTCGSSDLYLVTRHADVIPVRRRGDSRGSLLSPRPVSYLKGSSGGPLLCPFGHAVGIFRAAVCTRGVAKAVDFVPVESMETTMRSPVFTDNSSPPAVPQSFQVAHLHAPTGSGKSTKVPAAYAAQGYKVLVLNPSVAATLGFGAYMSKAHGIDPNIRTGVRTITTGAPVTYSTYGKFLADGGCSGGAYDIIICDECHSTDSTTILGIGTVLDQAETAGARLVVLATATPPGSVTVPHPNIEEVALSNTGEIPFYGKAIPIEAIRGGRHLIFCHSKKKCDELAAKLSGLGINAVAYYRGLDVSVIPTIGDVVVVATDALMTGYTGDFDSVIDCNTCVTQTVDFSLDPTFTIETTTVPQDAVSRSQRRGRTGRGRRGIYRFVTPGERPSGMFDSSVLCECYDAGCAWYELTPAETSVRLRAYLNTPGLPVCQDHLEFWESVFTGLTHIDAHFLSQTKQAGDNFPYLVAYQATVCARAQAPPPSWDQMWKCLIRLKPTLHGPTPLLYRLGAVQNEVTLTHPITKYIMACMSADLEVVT", "T2 sequence (P26663 1658-1711)": "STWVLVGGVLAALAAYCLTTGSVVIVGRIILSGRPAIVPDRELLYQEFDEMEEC", "assay": "Full-length NS3-NS4A heterodimer protein assay (Example 38)", "format": "biochemical, HCV genotype 1b", "source_text": "Full-length NS3-NS4A Heterodimer Protein Assay\nThe NS2-NS5B-3′ non coding region was cloned by RT-PCR into the pCR®3 vector (Invitrogen) using RNA extracted from the serum of an HCV genotype 1b infected individual (provided by Dr. Bernard Willems, Hôpital St-Luc, Montréal, Québec, Canada). The NS3-NS4A DNA region was then subcloned by PCR into the pFastBac™ HTa baculovirus expression vector (Gibco/BRL). The vector sequence includes a region encoding a 28-residue N-terminal sequence which contains a hexahistidine tag. The Bac-to-Bac™ baculovirus expression system (Gibco/BRL) was used to produce the recombinant baculovirus. The full length mature NS3 and NS4A heterodimer protein (His-NS3-NS4AFL) was expressed by infecting 10^6 Sf21 cells/mL with the recombinant baculovirus at a multiplicity of infection of 0.1-0.2 at 27° C. The infected culture was harvested 48 to 64 h later by centrifugation at 4° C. The cell pellet was homogenized in 50 mM NaPO4, pH 7.5, 40% glycerol (w/v), 2 mM β-mercaptoethanol, in presence of a cocktail of protease inhibitors. […] Fluorescence of the N-terminal product was monitored on a Perkin-Elmer LS-50B fluorometer equipped with a 96-well plate reader (excitation wavelength: 325 nm; emission wavelength: 423 nm).\nas §1"}}, "data": [{"smiles": "C=C[C@@H]1C[C@]1(NC(=O)[C@@H]1C[C@@H](Oc2cc(-c3ccccc3)nc3cc(OC)ccc23)CN1C(=O)[C@@H](NC(=O)OC(C)(C)C)C(C)C)C(=O)O", "note": "[compound 601]", "values": [{"measurement": "IC50", "setting": "[1]", "value": 50, "unit": "nM"}, {"measurement": "IC50", "setting": "[2]", "value": 30, "unit": "nM"}]}]}
